Test [1] relates to S. aureus 340. Kind of test: MIC, broth microdilution. The format is cell-based, Staphylococcus aureus. Conditions: for MIC: Staphylococcus aureus, 340, 24 h; for MIC S. aureus 340: 24 h. As for the experimental part:
(§1) Antimicrobial activity of the compounds was studied by determination of minimal inhibitory concentrations (MIC) according to the NCCLS guidelines M7-A2 using the microbroth dilution methods. The bacteria strains were grown on trypticase soy agar (Becton Dickinson) at 37 °C for 24 h. Inocula were prepared in TCE (tryptone 0.1%, […], wt/vol) by ajusting the turbidity at 623 nm to obtain 1–3 10^5 CFU/mL.
(§2) Antimicrobial activities of the compounds were determined by using a broth microdilution method performed in sterile 96-well microplates. All compounds were solubilized in water at a concentration of 10 mM and were transferred to each microplate well in order to obtain a two-fold serial dilution in 100 µL of broth and 100 µL of inoculum containing 2–6 10^5 CFU of each bacterium were added to each well. Some wells were reserved for positive controls and inoculum viability.
(In general: Dilution methods test growth across graded concentrations, often in twofold steps.)

Test [2] deals with S. aureus ATCC 25923. The experiment in a line: MIC, broth microdilution. The following applies: ATCC strain; for MIC: Staphylococcus aureus, ATCC25923, 24 h; for MIC S. aureus 25923: 24 h. The format is cell-based, Staphylococcus aureus. As for the experimental part:
as §1, §2

Test [3] concerns S. intermedius 1051997. The experiment in a line: MIC, broth microdilution. The format is cell-based, Staphylococcus intermedius. The following applies: 24 h; for MIC: Staphylococcus intermedius, 1051997, 24 h. The method, then: as §1, §2
Test [4] relates to E. faecalis ATCC29212. The experiment in a line: MIC, broth microdilution. The format is cell-based, Enterococccus faecalis. The following applies: ATCC strain; for MIC E. faecalis 29212: 24 h; for MIC: Enterococcus faecalis, ATCC29212, 24 h, read-out: MIC E. faecalis 29212. The method, then: as §1, §2
The test system of test [5] is E. coli 1956. Kind of test: MIC, broth microdilution. The format is cell-based, Escherichia coli. Conditions: for MIC: Escherichia coli, 1956, 24 h; for MIC E. coli 1956: 24 h. The method, then: as §1, §2
For test [6], the system named is E. coli ATCC 25922. The experiment in a line: MIC, broth microdilution. The format is cell-based, Escherichia coli. The following applies: ATCC strain; for MIC E. coli 25922: 24 h; for MIC: Escherichia coli, ATCC25922, 24 h. The method, then: as §1, §2
Test [7] concerns P. aeruginosa 1051575. Kind of test: MIC, broth microdilution. The class given is cell-based, Pseudomonas aeruginosa. The following applies: 24 h; for MIC: Pseudomonas aeruginosa, 1051575, 24 h. As for the experimental part:
as §1, §2

In test [8] the test system is P. aeruginosa ATCC 27853. The experiment in a line: MIC, broth microdilution. The format is cell-based, Pseudomonas aeruginosa. The following applies: ATCC strain; for MIC P. aeruginosa 27853: 24 h; for MIC: Pseudomonas aeruginosa, ATCC27853, 24 h. As for the experimental part: as §1, §2
For test [9], the system named is Chinese hamster Ovary cells (CHO-K1). The experiment in a line: Cytotoxicity assay (WST-1 / Neutral Red). The class given is cell-based. Conditions: 24-h incubation; for IC50: Cricetulus griseus, 24 h. As for the experimental part: The cytotoxic activities of compounds were assessed on Chinese hamster Ovary cells (CHO-K1) provided from ATCC-LGC Standards Sarl (Molsheim, France). Cells were maintained in Mc Coy’s 5A (CHO) medium supplemented with 10% bovine calf serum, 2 mM glutamine, and 100 U mL^−1/10 µg mL^−1 penicillin/streptomycin mixtures. For the cytotoxicity experiments, they were seeded in 96-well plates and incubated at 37 °C in humidified atmosphere containing 5% CO2 overnight, then concentrations of compounds were incorporated in triplicate cultures. After a 24-h incubation period at 37 °C, cells were submitted to three successive washes in phosphate buffer saline (PBS) and cell viability was evaluated by two different vital dyes: • i. A first set of cell cultures was incubated in PBS containing 10% WST-1 for 30 min at 37 °C, 5% CO2. Cell viability was evaluated by the assessment of WST-1 absorbance at 450 nm in a microplate spectrophotometer. • ii. A second set of cell cultures was placed into Neutral Red medium (50 μg mL^−1 Neutral Red in complete medium) and incubated for 3 h at 37 °C, 5% CO2. Then the Neutral Red medium was removed and the distaining solution (50% ethanol, 1% acetic acid, 49% distilled water; 50 µL per well) was added into the wells. The plates were shaken for 15–20 min at room temperature in the dark. Cell viability was evaluated by the assessment of absorbance at 540 nm in a microplate spectrophotometer.
Results were expressed as percentages of cell viability about the control (culture medium-only), which corresponded to 100% cell viability. Dose-response curves were calculated by non-linear regression analysis with TableCurve 2D software (V 5.0.1) (Systat Software Inc., San Jose, CA, USA). The Inhibitory Concentration 50% (IC50) was defined as the concentration of compounds that induced a 50% decrease of viable cells.
On the technique in general: Formazan colour is commonly taken as a measure of viable cells.

Converted amounts (≈) assume the structure as drawn.

As usually defined, the MIC is the lowest concentration that inhibits growth of the organism. As a reminder, the IC50 is the point on the concentration scale where inhibition reaches its midpoint. Read a low IC50 as higher potency.

For the compound `CC(C)OC(=O)CCC(C)C1CCC2C3C(O)CC4CC(NCCCNCCCCN)CCC4(C)C3CCC12C` (stereo not drawn) [Claramine C18], the MIC in [1] is 7 µg/mL (≈ 12.5 µM); in test [2] it was 7 µg/mL (≈ 12.5 µM); in [3], 4 µg/mL (≈ 7.12 µM); in test [5], 14 µg/mL (≈ 24.9 µM). Further, the “MIC E. faecalis 29212” value in test [4] is reported as 7 µg/mL (≈ 12.5 µM). Also, the “MIC E. coli 25922” value in test [6] turned out to be 14 µg/mL (≈ 24.9 µM). The “MIC P. aeruginosa 1051575” value in test [7] came to 14 µg/mL (≈ 24.9 µM). In addition, the “MIC P. aeruginosa 27853” value in test [8] amounted to 14 µg/mL (≈ 24.9 µM). Also, the IC50 in test [9] was 95 µg/mL (≈ 169 µM).

Take `CCOC(=O)CCC(C)C1CCC2C3C(O)CC4CC(NCCCNCCCCNCCCN)CCC4(C)C3CCC12C` (stereo not drawn) [Claramine C21]: the MIC in test [1] stood at 4 µg/mL (≈ 6.61 µM); in test [2], 4 µg/mL (≈ 6.61 µM); in [3], 4 µg/mL (≈ 6.61 µM); in test [4], 2 µg/mL (≈ 3.31 µM); in test [5] it was 30 µg/mL (≈ 49.6 µM); in test [6], 15 µg/mL (≈ 24.8 µM). The MIC in test [7] and in test [8] was 15 µg/mL (≈ 24.8 µM) each time. Moreover, the IC50 in [9] stood at 45 µg/mL (≈ 74.4 µM).

As for `CC(C)OC(=O)CCC(C)C1CCC2C3C(O)CC4CC(NCCCNCCCCN)CCC4(C)C3CCC12C` (stereo not drawn) [Claramine C27], in [1], the “MIC S. aureus 340” value amounted to 7 µg/mL (≈ 12.5 µM). For the same compound, the “MIC S. aureus 25923” value in [2] is given as 7 µg/mL (≈ 12.5 µM). Further, the “MIC S. intermedius 1051997” value in test [3] came to 7 µg/mL (≈ 12.5 µM). In [4], the “MIC E. faecalis 29212” value worked out at 28 µg/mL (≈ 49.8 µM). Besides, in [5], the “MIC E. coli 1956” value came to 28 µg/mL (≈ 49.8 µM). Further, the “MIC E. coli 25922” value in test [6] came out at 56 µg/mL (≈ 99.7 µM). Also, the “MIC P. aeruginosa 1051575” value in test [7] was determined as 56 µg/mL (≈ 99.7 µM). For the same compound, in [8], the “MIC P. aeruginosa 27853” value is recorded as 56 µg/mL (≈ 99.7 µM). In addition, in test [9], the “IC50 CHO” value is on record as 100 µg/mL (≈ 178 µM).

Regarding `COC(=O)CCC(C)C1CCC2C3C(O)CC4CC(NCCCNCCCNCCCN)CCC4(C)C3CCC12C` (stereo not drawn) [Claramine D02], the “MIC S. aureus 340” value in test [1] was found to be 4 µg/mL (≈ 6.93 µM). Also, the “MIC S. aureus 25923” value in test [2] worked out at 7 µg/mL (≈ 12.1 µM). Moreover, the “MIC S. intermedius 1051997” value in [3] is recorded as 1 µg/mL (≈ 1.73 µM). Besides, the “MIC E. faecalis 29212” value in test [4] was 30 µg/mL (≈ 52 µM). For the same compound, in [5], the “MIC E. coli 1956” value came out at 60 µg/mL (≈ 104 µM). For the same compound, the “MIC E. coli 25922” value in [6] was determined as 4 µg/mL (≈ 6.93 µM). Moreover, in test [7], the “MIC P. aeruginosa 1051575” value came to 7 µg/mL (≈ 12.1 µM). Besides, in test [8], the “MIC P. aeruginosa 27853” value stood at 30 µg/mL (≈ 52 µM). The “IC50 CHO” value in [9] worked out at 20 µg/mL (≈ 34.7 µM).

As for `CC(C)OC(=O)CCC(C)C1CCC2C3C(O)CC4CC(NCCN(CCN)CCN)CCC4(C)C3CCC12C` (stereo not drawn) [Claramine D10], the “MIC S. aureus 340” value in [1] amounted to 28 µg/mL (≈ 49.7 µM). Moreover, the MIC in [2] turned out to be 28 µg/mL (≈ 49.7 µM); in test [3], 7 µg/mL (≈ 12.4 µM); in [4], 56 µg/mL (≈ 99.5 µM); in test [5], 56 µg/mL (≈ 99.5 µM); in test [6] it was 110 µg/mL (≈ 195 µM); in test [8], 110 µg/mL (≈ 195 µM). Further, in test [7], the “MIC P. aeruginosa 1051575” value is reported as 14 µg/mL (≈ 24.9 µM). In [9], the “IC50 CHO” value is on record as 80 µg/mL (≈ 142 µM).

For the compound `CC(C)OC(=O)CCC(C)C1CCC2C3CCC4CC(NCCCNCCCCNCCCN)CCC4(C)C3CCC12C` (stereo not drawn) [Claramine E01], the MIC in [1] is 4 µg/mL (≈ 6.63 µM); in test [2], 4 µg/mL (≈ 6.63 µM); in test [3], 2 µg/mL (≈ 3.32 µM); in test [4], 8 µg/mL (≈ 13.3 µM); in test [5], 8 µg/mL (≈ 13.3 µM); in [6] it was 15 µg/mL (≈ 24.9 µM). For the same compound, the MIC in [7] came to 8 µg/mL (≈ 13.3 µM); in test [8], 15 µg/mL (≈ 24.9 µM). In test [9], 24 µg/mL (≈ 39.8 µM) corresponded to half-maximal inhibition (IC50).

Turning to `CC(C)OC(=O)CCC(C)C1CCC2C3CCC4CC(NCCCNCCCNCCCN)CCC4(C)C3CCC12C` (stereo not drawn) [Claramine E02], the MIC in [1] came to 7 µg/mL (≈ 11.9 µM); in test [2] it was 7 µg/mL (≈ 11.9 µM); in [3], 1 µg/mL (≈ 1.7 µM); in test [4], 14 µg/mL (≈ 23.8 µM); in test [5], 7 µg/mL (≈ 11.9 µM); in test [6], 14 µg/mL (≈ 23.8 µM). Besides, the values for the MIC in test [7] and in [8] were 2 µg/mL (≈ 3.4 µM) and 28 µg/mL (≈ 47.5 µM), respectively. Further, the IC50 in [9] is 15 µg/mL (≈ 25.5 µM).

`CC(C)OC(=O)CCC(C)C1CCC2C3CCC4CC(NCCCNCCCCN)CCC4(C)C3CCC12C` (stereo not drawn) [Claramine E03]: the MIC in test [1] was determined as 7 µg/mL (≈ 12.8 µM); in [2] it was 3 µg/mL (≈ 5.5 µM); in [3], 2 µg/mL (≈ 3.66 µM); in test [4] it was 7 µg/mL (≈ 12.8 µM); in test [5] it was 14 µg/mL (≈ 25.6 µM); in test [6] it was 100 µg/mL (≈ 183 µM). The MIC was 7 µg/mL (≈ 12.8 µM) in test [7] and 27 µg/mL (≈ 49.5 µM) in test [8]. This compound also yielded an IC50 in [9] of 56 µg/mL (≈ 103 µM).

The record behind these values is PMC12693182, “Synthesis and QSAR Studies of Claramine Derivatives, a New Class of Broad-Spectrum Antimicrobial Agents” (Molecules, 2025).
